The source of these data is patent publication US9566334B2, “Combinations of a PI3K/AKT inhibitor compound with an HER3/EGFR inhibitor compound and use thereof in the treatment of a hyperproliferative disorder” (THE GENERAL HOSPITAL CORPORATION, priority 2012, dated 2017).

The test concerns TNBC patients. Nature of the test: Neoadjuvant trial of panitumumab with standard chemotherapy (pCR, EGFR and HER3 IHC). It is filed as in vivo, human. The protocol: Patient samples: Tumor tissue was fixed in 10%-buffered formalin for 48 h and further embedded in paraffin. Four-micron sections were deparaffinized in xylene and hydrated in graded alcohols. For EGFR detection, the antigen was retrieved by protease treatment (8 min at 37° C.) and the sections further incubated at 37° C. for 1 h with pre-diluted, ready-to-use mouse monoclonal anti-EGFR (clone 3C6, Ventana, Tucson, Ariz.). The antigen-antibody reaction was visualized by UltraView DAB reveal system in a Benchmark XT automated IHC stainer (all from Ventana). For HER3, the antigen retrieval was performed by heating the sections at 97° C. for 20 min in EnVision® Target Retrieval Solution High pH (Dako) in PT-Link apparatus (Dako). The tissues were then incubated at 37° C. for 2 h with mouse monoclonal anti-HER3 (clone DAK-H3-IC, Dako, Glostrup, Denmak) diluted at 1:50. […] For each patient the pre-treatment and the post-treatment tumor sample were run together. IHC staining was interpreted by an expert pathologist who was blind to patient information. Both EGFR and HER3 expressions were quantified using an arbitrary scale having 0, 0.5, 1, 1.5, 2, 2.5 and 3 as measures of increasing staining intensity. EGFR and HER3 histoscores were defined as a sum of products obtained by multiplying the staining intensity with the percentage of stained cells.
FFPE specimens for IHC analyses of EGFR and HER3 expression were obtained from the institutions participating in two French multicenter pilot phase II neoadjuvant trials which tested the efficacy of an anti-EGFR antibody combined to chemotherapy in TNBC stage II-IIIA pts. One trial regimen consisted of 8 cycles, administered each 3 weeks. First 4 cycles contained 9 mg/kg of panitumumab combined with 500 mg/m2 of each 5-fluorouracil and cyclophosphamide plus 100 mg/m2 of epirubicin. Last 4 cycles had panitumumab with 100 mg/m2 docetaxel instead of 3 cytotoxics previously mentioned. […] All patients underwent surgery at completion of treatment. Pathologic complete response (pCR) was the primary endpoint with clinical response and toxicity as secondary endpoints. […] Tumor tissue samples were systematically collected before and at the end of the neoadjuvant treatment and collection was centralized at the Jean Perrin Comprehensive Cancer Center where molecular and pathological analyses were performed. pCR was evaluated using Chevallier's (Chevallier et al., American Journal of Clinical Oncology 16, 223 (1993)) and Sataloff's (Sataloff et al., Journal of the American College of Surgeons 180, 297 (1995)) classifications.

Where [1] appears, read: pre-treatment EGFR histoscore more than 70.
[2] abbreviates: pre-treatment EGFR histoscore ≦70.

In the case of “panitumumab: anti-EGFR antibody, epidermal growth factor receptor antagonist”, the “residual disease at the time of surgery, rate” value (40 patients) worked out at 52.5%. Moreover, the “pathological complete response (pCR) rate” value (40 patients, panitumumab with 4 standard cytotoxic agents, 24 weeks) was 47.5%. For the same substance, the “increase in pCR compared to TNBC patients treated only with cytotoxics-based neoadjuvant chemotherapy” value (comparison with Liedtke et al. 2008) is reported as “two-fold increase”. For the same substance, for the setting “of 40 patients”, the “patients with residual disease at the time of surgery” value amounted to 21. The “patients achieving pathological complete response (pCR)” value (of 40 patients, panitumumab with 4 standard cytotoxic agents, 24 weeks) came out at 19. The “non-pCR patients with higher HER3 expression in residual lesions versus pre-treatment (IHC)” value (p equals 0.010) is listed as 7 out of 13. Further, the “non-pCR patients with decreased EGFR levels in residual tumors versus baseline (IHC)” value (p equals 0.07) was “nine out of 21”. Besides, under setting [1], the pCR rate is recorded as 58% and the “patients with pCR” value is given as 15 out of 26. Under setting [2], the “complete tumor regression rate” value is listed as 28% and the “patients with complete tumor regression” value is on record as 4 out of 14.
